Results: patent US20210147807A1, “METHODS FOR PURIFYING ENDODERM AND PANCREATIC ENDODERM CELLS DERIVED FROM HUMAN EMBRYONIC STEM CELLS” (HELMHOLTZ ZENTRUM MUNCHEN - DEUTSCHES FORSCHUNGSZENTRUM FUR …, priority 2017, published 2021)

Tests used:
[1] = test system: CD177+ and CD275+ ADE subpopulations in the bulk CXCR4+ DE population; experiment: Modulation of ADE differentiation efficiency by BMP/TGF-β inhibitors during endoderm induction, FACS percentage of CD177+ and CD275+ ADE; assay type: cell-based, human; details: for percentage of CD275+ DE differentiation: combination of 2.5 μM DMH1 and 1 μM SB431542, endoderm differentiation until D4
Protocol: I-K) Pie charts representing the percentage of CD177+ and CD275+ ADE subpopulations generated using no inhibition of pathways (I, condition 1), with high inhibition of BMP signalling using BMP inhibitor DMH1 (J, condition 2) and with moderate BMP inhibition and low TGF-β inhibition (K, condition 3).
(§1) H9, Mel1-NKX6.1-GFPand iPSCs were cultured on 1:30 diluted Geltrex (Invitogen, U.K, Cat #A1413302) in StemMACS iPS-Brew medium (Miltenyi Biotech, Germany, Cat #130-104-368). At ^˜70-80% confluency, cultures were rinsed with 1×DPBS without Mg2+ and Ca2+ (Invitrogen, Cat #14190) followed by incubation with 0.5 mM EDTA (Applichem, Cat #12604-021) for 2-3 min at 37° C. Single cells were rinsed with iPS-Brew, and spun at 1,300 r.p.m. for 3 mins. The resulting cell pellet was suspended in iPS-Brew medium supplemented with Y-27632 (10 μM; Sigma-Aldrich; MO, Cat #Y0503) and the single cell suspension was seeded at ^˜1.5-2×10 s cells/cm2 on Geltrex-coated surfaces. Cultures were fed every day with iPS-Brew medium and differentiation was initiated 24 h following seeding, resulting in ^˜90% starting confluency. The cells were differentiated towards definitive endoderm using MCDB131 medium supplemented with 0.5% BSA (Sigma, Cat #10775835001), 100 ng/ml Activin A (Peprotech, Cat #120-14-300) and 25 ng/ml WNT3A (Peprotech, Cat #315-20) for the first day. For the next 2 days, the cells were treated with MCDB131 supplemented with 0.5% BSA and 100 ng/ml Activin A. For differentiation towards β cells, Rezania, et. al; 2014 β-cell differentiation protocol was used 14. In nutshell, the cells were differentiated towards primitive gut tube with MCDB131 supplemented with 0.5% BSA, 50 ng/ml of FGF7 (Peprotech, Cat #100-19-100) and 0.25 mM Vit.C (Sigma, Cat #120-14-300) for 2 days. For differentiation towards posterior foregut, the cells were further exposed to MCDB131 medium supplemented with 1xGlutamax (Gibco, Cat #A12860-01), 2% BSA (Cat #10775835001), 0.25 mM Vit. C (Sigma, Cat #A4544-25G), 50 ng/ml FGF7, 0.25 μM SANT-1 (Sigma, Cat #54572-5MG), 1 μM retinoic acid (Sigma, Cat #R2625-50MG), 100 nM LDN193189 (Sigma, Cat #04-0074), 1:200 ITS-X (Gibco, Cat #51500-056) and 200 nM TPB (Merk Millipore, Cat #565740-1MG) for 2 days. For the WNT inhibition experiment only, 1.25 μM of IWP2 (Tocris, Cat #3533-10) was added to the cultures. The cells were then further differentiated towards pancreatic endoderm using MCDB131 supplemented with 1xGlutamax, 10 mM final glucose concentration, 2% BSA, 0.25 mM Vit.C, 2 ng/ml FGF7, 0.25 μM SANT-1, 0.1 μM retinoic acid, 200 nM LDN193189, 1:200 ITS-X and 100 nM TPB for 3 days. […]

[2] = test system: PDX1+/NKX6.1+ PP2 cells derived from CD177+, CD275+ and CXCR4+ subpopulations; experiment: Inhibition of WNT secretion during gut tube patterning, FACS for PDX1+/NKX6.1+ PP2 cells from sorted ADE subpopulations; assay type: cell-based, human; details: after addition of IWP2 (1.25 μM) at S2, 2D culture
Protocol: A) Overview of differentiation protocol towards pancreatic progenitors where inhibition of WNT secretion is performed at […] stage using IWP2 B-D) FACS quantification (B) and immunocytochemistry (C-D) for the percentage of cells expressing
PDX1+/NKX6.1+ generated from CD177+-, CD275+- and CXCR4+-ADE before (B, C), Scale bars, 50 μm and after (B, D) the treatment with IWP2. Scale bars, 20 μm.
as §1, with “Vit.” for “Vit. C (Sigma, Cat #A4544-25G), 50 ng/ml FGF7, 0.25 μM SANT-1 (Sigma, Cat #54572-5MG), 1 μM retinoic acid (Sigma, Cat #R2625-50MG), 100 nM LDN193189 (Sigma, Cat #04-0074), 1:200 ITS-X (Gibco, Cat #51500-056) and 200 nM TPB (Merk Millipore, Cat #565740-1MG) for 2 days. For the WNT inhibition experiment only, 1.25 μM of IWP2 (Tocris, Cat #3533-10) was added to the cultures. The cells were then further differentiated towards pancreatic endoderm using MCDB131 supplemented with 1xGlutamax, 10 mM final glucose concentration, 2% BSA, 0.25 mM Vit.C, 2 ng/ml FGF7, 0.25 μM SANT-1, 0.1 μM retinoic acid, 200 nM LDN193189, 1:200 ITS-X and 100 nM TPB for 3 days.”

[3] = standard differentiation without inhibitor 21%

Structure (SMILES)	percentage of CD275+ ADE in the bulk CXCR4+ DE population ([1]; 4 μM DMH1 with 100 ng/ml AA, endoderm differentiation until D4, standard differentiation without inhibitor 21%)	percentage of CD177+ ADE in the bulk CXCR4+ DE population ([1]; 4 μM DMH1 with 100 ng/ml AA, endoderm differentiation until D4, standard differentiation without inhibitor 35.5%)	percentage of CD275+ DE differentiation [1, 3]	percentage of PDX1+/NKX6.1+ PP2 cells derived from CD275+ ADE ([2]; without IWP2 approx. 30%)	percentage of PDX1+/NKX6.1+ PP2 cells derived from CXCR4+ DE ([2]; without IWP2 approx. 45%)	change in percentage of PDX1+/NKX6.1+ double positive PP2 cells in CD177+-derived PP2s ([2]; without IWP2 approx. 75%)
CC(C)Oc1ccc(-c2cnc3c(-c4ccnc5ccccc45)cnn3c2)cc1 [DMH1]	14%	80.5%	54.0%			
Cc1ccc2nc(NC(=O)CSc3nc4c(c(=O)n3-c3ccccc3)SCC4)sc2c1 [IWP2]				50%	75%	No differences were observed
NC(=O)c1ccc(-c2nc(-c3ccc4c(c3)OCO4)c(-c3ccccn3)[nH]2)cc1 [SB431542]			54.0%			
